Test [1] has as its target T1, ER (Homo sapiens (Human), UniProt P03372). Put plainly: In-cell western blot analysis (Compounds B1 to B5). The settings on record: 16 hours; read-out: ICW DC50. The format is cell-based. The procedure:
In-cell western blot analysis. Cells are seeded in multi-well plates (e.g., at 40,000 or 10,000 cells/well). Diluted compounds at certain concentration are added (final 0.5% DMSO) and cells are incubated for a certain period of time (e.g., 16 hours). Formaldehyde (e.g., PBS:FA=9:1) is added and followed by washing with PBS. The cells are blocked with Licor blocking buffer (Li-Cor). The relative ER percentage in treated cells were obtained by comparing the values of treated wells to those in untreated and DMSO-treated wells as 100%.
In-cell western blot analysis, a. seed cells in black-sided/clear bottom 96- or 384-well plates at 40,000 or 10,000 cells/well, overnight; b, add diluted compounds (final 0.5% DMSO), 16 hours. 16 h later, remove medium, add 100 μL or 25 µL of 3.7-4.0% formaldehyde (PBS: FA=9:1), RT 20 min, no shaking; c. wash with PBS, and permeabilized with 100 μL or 25 μL/well of 1×PBS+0.1% Triton X-100 10 minutes; d. block with 100 μL or 25 L Licor blocking buffer (Li-Cor), RT 1 h, moderate shaking; d. Add 100 μL or 25 μL of anti-ER (cs-8644, 1:500-1,000)+GAPDH (Millipore MAB374, 1:1000) in Block+0.05% Tween 20. RT 2 h, gentle shaking. Negative control: cells plus secondary antibodies (no primary antibodies); e. wash×4 with PBS+0.05-0.1% Tween 20, gentel shaking; f, anti-rabbit-680 and anti-mouse-800 (both 1:1000 in LiCor block+0.05% Tween20, RT 1 h, gentle shaking, no light. LI-COR: 0.2% to reduce background; g. wash×4 with PBS+0.05% Tween 20, gental shaking; h, add 100 μL or 25 μL of PBS to each well and read on CLX plate reader. The relative ER percentage in treated cells were obtained by comparing the values of treated wells to those in untreated and DMSO-treated wells as 100%.

The next test has as its system T47D cell line. Put plainly: Cell growth assay (WST-8) in T47D cell line. The format is cell-based. Conditions: Homo sapiens, 96 h, WST-8, 4 days, read-out: Cell Growth Inhibition in T47D cell line IC50. The procedure:
Cell Growth Assay. The cells are seeded at certain concentration (e.g., at 1500/well) in multi-well plates overnight. Cells are subsequently treated with the compounds. A certain period of time (e.g., 4 days) after the compound treatment, 10% WST-8 reagent is added to the culture medium and incubate under certain conduction (e.g., in a CO2 incubator at 37° C. for 2.5 hours). The absorbance is measured on each sample using a microplate reader at certain wavelength (e.g., 450 nm). The relative absorbance is calculated against the vehicle control from three individually repeats.
Cell Growth Assay. The cells were seeded at 1500/well in 96 well plates overnight. One day after the seeding, they were treated with indicated doses of compounds respectively. 4 days after the compound treatment, 10% WST-8 reagent was added to the culture medium and incubate in a CO2 incubator at 37° C. for 2.5 hours. Before reading, the plate was mixed gently on an orbital shaker for one minute to ensure homogeneous distribution of color. The absorbance was measured of each sample using a microplate reader at a wavelength of 450 nm. The relative absorbance was calculated against the vehicle control from three individually repeats.

Test [2] deals with T1, ER. The test can be described thus: In-cell western (ICW) ER degradation assay in T47D cells. The format is cell-based. Conditions: 16 hrs; for DC50: ER degradation.
The next test has as its target ERα_LBD(GST) (Homo sapiens (Human), UniProt P03372). Put plainly: LanthaScreen TR-FRET ERα competitive binding assay. The settings on record: read-out: ERα HTRF IC50. Summed up:
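GST-tagged ERα LBD (4 nM) with Tb anti-GST (2 nM) and Fluormone ES2 Green tracer (3 nM) in nuclear receptor buffer K plus 5 mM DTT, 1% DMSO; 3-fold compound dilutions, 60 min at room temperature in the dark. TR-FRET 520/495 nm ratio vs log[ligand], sigmoidal fit for IC50; 1 μM ARV_471 as full-inhibition control.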

The next test has as its target CRBN/DDB1 (Homo sapiens (Human), UniProt Q96SW2). Put plainly: HTRF binding assay to CRBN/DDB1. The protocol:
The binding potency was determined using HTRF assay technology (Perkin Elmer). Compounds were serially diluted in DMSO and 0.2 μL volume was transferred to white 384-well plate.

The subject of a further test is T47D cells. Conditions: read-out: T47D Proliferation IC50; CellTiter-Glo, day 6.
Another test deals with MCF-7 cells. Conditions: read-out: MCF7 Proliferation IC50; CellTiter-Glo, day 6.
Test [3] concerns the target T1, ER. The test can be described thus: In-cell western (ICW) ER degradation assay in MCF-7 cells. The settings on record: MCF7, 16 hrs; for DC50: ER degradation; for MCF7 Dmax %: maximal ER degradation. It counts as cell-based.

SMILES strings stand for the structures. Like-named read-outs stand apart in the source and are kept apart here. Where only a bound is given, the exact number is not on record here.

T1 sequence (P03372 whole entry): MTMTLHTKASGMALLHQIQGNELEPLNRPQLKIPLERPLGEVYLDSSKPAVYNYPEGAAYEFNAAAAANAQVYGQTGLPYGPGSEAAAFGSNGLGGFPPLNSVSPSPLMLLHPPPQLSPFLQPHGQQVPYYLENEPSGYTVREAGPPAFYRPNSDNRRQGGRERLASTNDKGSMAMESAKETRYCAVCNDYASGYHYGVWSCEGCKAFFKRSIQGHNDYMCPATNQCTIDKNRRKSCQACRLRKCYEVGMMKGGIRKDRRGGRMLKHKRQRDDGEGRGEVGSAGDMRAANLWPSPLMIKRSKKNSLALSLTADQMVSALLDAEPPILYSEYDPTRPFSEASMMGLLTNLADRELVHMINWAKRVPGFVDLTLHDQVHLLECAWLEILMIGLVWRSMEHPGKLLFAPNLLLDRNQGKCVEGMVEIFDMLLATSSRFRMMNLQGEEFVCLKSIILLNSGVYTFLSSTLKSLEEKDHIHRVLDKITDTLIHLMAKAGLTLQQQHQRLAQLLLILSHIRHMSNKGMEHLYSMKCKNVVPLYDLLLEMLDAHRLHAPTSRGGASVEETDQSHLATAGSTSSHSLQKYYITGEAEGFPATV
Sequence of CRBN/DDB1 (Q96SW2 whole entry): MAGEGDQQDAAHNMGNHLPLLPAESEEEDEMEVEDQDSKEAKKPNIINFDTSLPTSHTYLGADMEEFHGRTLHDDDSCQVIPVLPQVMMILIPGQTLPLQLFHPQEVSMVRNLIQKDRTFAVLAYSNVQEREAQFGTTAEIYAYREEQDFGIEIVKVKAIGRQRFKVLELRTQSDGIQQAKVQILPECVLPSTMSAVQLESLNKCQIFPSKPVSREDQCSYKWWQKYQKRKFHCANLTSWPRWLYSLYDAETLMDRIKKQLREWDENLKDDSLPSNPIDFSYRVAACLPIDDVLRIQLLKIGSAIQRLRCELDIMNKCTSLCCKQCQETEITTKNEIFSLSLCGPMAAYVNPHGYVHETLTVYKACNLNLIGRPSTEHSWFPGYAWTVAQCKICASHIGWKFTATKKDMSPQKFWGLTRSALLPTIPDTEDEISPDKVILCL
Sequence of CRBN/DDB1 (Q16531 whole entry partner): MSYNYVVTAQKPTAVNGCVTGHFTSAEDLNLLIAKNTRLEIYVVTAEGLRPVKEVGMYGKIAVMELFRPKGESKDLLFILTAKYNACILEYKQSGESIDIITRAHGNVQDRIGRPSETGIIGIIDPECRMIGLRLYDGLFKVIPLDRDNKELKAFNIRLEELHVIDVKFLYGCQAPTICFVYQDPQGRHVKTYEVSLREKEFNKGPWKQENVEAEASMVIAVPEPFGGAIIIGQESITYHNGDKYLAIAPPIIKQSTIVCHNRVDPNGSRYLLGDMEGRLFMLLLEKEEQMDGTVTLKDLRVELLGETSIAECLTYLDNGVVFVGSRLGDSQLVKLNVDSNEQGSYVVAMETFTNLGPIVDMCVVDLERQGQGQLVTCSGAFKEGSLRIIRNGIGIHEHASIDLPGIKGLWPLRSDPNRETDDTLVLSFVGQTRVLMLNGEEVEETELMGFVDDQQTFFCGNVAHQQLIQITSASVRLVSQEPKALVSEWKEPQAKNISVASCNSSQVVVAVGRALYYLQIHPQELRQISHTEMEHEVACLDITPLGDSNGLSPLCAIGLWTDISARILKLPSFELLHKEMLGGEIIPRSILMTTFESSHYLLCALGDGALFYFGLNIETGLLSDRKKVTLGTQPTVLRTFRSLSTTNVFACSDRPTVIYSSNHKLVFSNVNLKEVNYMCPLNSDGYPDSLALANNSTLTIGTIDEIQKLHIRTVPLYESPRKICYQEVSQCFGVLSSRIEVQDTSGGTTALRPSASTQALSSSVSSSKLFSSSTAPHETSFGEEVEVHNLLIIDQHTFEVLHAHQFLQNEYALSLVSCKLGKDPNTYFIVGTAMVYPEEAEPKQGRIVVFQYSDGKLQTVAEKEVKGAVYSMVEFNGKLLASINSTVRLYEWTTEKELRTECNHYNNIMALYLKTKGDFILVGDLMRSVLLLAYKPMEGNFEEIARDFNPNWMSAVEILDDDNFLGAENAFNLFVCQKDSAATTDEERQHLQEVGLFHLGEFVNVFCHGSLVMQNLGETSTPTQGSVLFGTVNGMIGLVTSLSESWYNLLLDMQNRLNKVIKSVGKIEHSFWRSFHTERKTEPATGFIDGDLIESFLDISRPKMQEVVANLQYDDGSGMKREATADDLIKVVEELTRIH
Sequence of ERα_LBD(GST) (P03372 311-547): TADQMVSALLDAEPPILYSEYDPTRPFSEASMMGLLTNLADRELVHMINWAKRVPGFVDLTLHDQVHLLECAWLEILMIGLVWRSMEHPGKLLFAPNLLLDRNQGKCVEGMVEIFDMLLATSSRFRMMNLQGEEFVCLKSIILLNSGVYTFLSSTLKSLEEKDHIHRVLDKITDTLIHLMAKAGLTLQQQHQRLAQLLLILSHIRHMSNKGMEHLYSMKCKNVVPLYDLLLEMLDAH

`O=C1CCC(N2Cc3cc4c(cc3C2=O)OC[C@@H]2CN(CC3CC5(CCN(c6ccc(C7c8ccc(O)cc8OCC7c7ccccc7)cc6)CC5)C3)CCN42)C(=O)N1` (stereo partly drawn) [Compound B3, 3-((4aS)-3-((7-(4-(7-hydroxy-3-phenylchroman-4-yl)phenyl)-7-azaspiro[3.5]nonan-2-yl)methyl)-8-oxo-1,2,3,4,4a,5,8,10-octahydro-9H-pyrazino[1′,2′:4,5] [1,4]oxazino[2,3-f]isoindol-9-yl) piperidine-2,6-dione]: the DC50 at ER [1] is over 100 nM. Moreover, the IC50 in the test with T47D cell line was over 10 nM.

For the compound `O=C1CCC(N2Cc3c(ccc4c3OC[C@H]3CN(CC5CCN(c6ccc(C7c8ccc(O)cc8OCC7c7ccccc7)cc6)CC5)CCN43)C2=O)C(=O)N1` (stereo partly drawn) [Compound B1, 3-((5aR)-7-((1-(4-(7-hydroxy-3-phenylchroman-4-yl)phenyl)piperidin-4-yl)methyl)-1-oxo-1,3,5,5a,6,7,8,9-octahydro-2H-pyrazino[1′,2′:4,5][1,4]oxazino[2,3-e]isoindol-2-yl) piperidine-2,6-dione], the DC50 on ER [1] is over 100 nM. Further, the IC50 in the test on T47D cell line was over 10 nM.

On to `O=C1CCC(N2Cc3cc4c(cc3C2=O)OC[C@@H]2CN(CC3CCC5(CC3)CN(c3ccc([C@@H]6c7ccc(O)cc7OC[C@@H]6c6ccccc6)cc3)C5)CCN42)C(=O)N1` (stereo partly drawn) [Compound A53, 3-((S)-3-((2-(4-((3S,4R)-7-hydroxy-3-phenylchroman-4-yl)phenyl)-2-azaspiro[3.5]nonan-7-yl)methyl)-8-oxo-1,2,3,4,4a,5,8,10-octahydro-9H-pyrazino[1′,2′:4,5][1,4]oxazino[2,3-f]isoindol-9-yl)piperidine-2,6-dione], for which the DC50 on ER [2] and on ER [3] was 1 to 10 nM in each case. Moreover, the “T47D Dmax %” value on ER [2] (maximal ER degradation) is listed as “A (“A”; >=75%)”. Besides, the IC50 on ERα_LBD(GST) is under 5 nM; on CRBN/DDB1 (read-out: CRBN HTRF IC50) it was 500 to 5000 nM; with T47D cells, 50 to 500 nM; in the test with MCF-7 cells, 50 to 500 nM. In addition, the “MCF7 Dmax %” value on ER [3] is “B (“B”: >50% and <75%)”.

With `O=C1CCC(N2Cc3c(ccc4c3OCC43CCN(CC4CC5(CCN(c6ccc(C7c8ccc(O)cc8OCC7c7ccccc7)cc6)CC5)C4)CC3)C2=O)C(=O)N1` (centres unmarked) [Compound B4, 3-(1′-((7-(4-(7-hydroxy-3-phenylchroman-4-yl)phenyl)-7-azaspiro[3.5]nonan-2-yl)methyl)-6-oxo-6,8-dihydro-2H,7H-spiro[furo [2,3-e]isoindole-3,4′-piperidin]-7-yl)piperidine-2,6-dione], the DC50 on ER [1] is over 100 nM. Further, the IC50 with T47D cell line was over 10 nM.

In the case of `O=C1CCC(N2Cc3cc(N4CCN(CC5CC6(CCN(c7ccc([C@@H]8c9ccc(O)cc9OC[C@@H]8c8ccccc8)cn7)CC6)C5)CC4)ccc3C2=O)C(=O)N1` (single isomer, unassigned) [Compound A92], the DC50 on ER [2] and on ER [3] was under 1 nM throughout. Moreover, the “T47D Dmax %” value on ER [2] (maximal ER degradation) was “B (“B”: >50% and <75%)”. The IC50 is over 5000 nM at CRBN/DDB1 (CRBN HTRF IC50 (nM)), under 50 nM in the test with T47D cells and under 50 nM in the test with MCF-7 cells. Further, on ER [3], the “MCF7 Dmax %” value was “B (“B”: >50% and <75%)”.

As to `O=C1CCC(N2C(=O)c3cc4c(cc3C2=O)CN(CC(=O)N2CCC3(CC2)CCN(c2ccc(C5c6ccc(O)cc6OCC5c5ccccc5)cc2)CC3)C4)C(=O)N1` (centres unmarked) [Compound B5, 2-(2,6-dioxopiperidin-3-yl)-6-(2-(9-(4-(7-hydroxy-3-phenylchroman-4-yl)phenyl)-3,9-diazaspiro[5.5]undecan-3-yl)-2-oxoethyl)-6,7-dihydropyrrolo[3,4-f]isoindole-1,3(2H,5H)-dione], the DC50 on ER [1] is over 100 nM. In addition, the IC50 with T47D cell line was over 10 nM.

As to `O=C1CCC(N2Cc3c(ccc4c3OC[C@H]3CN(CC5CC6(CCN(c7ccc(C8c9ccc(O)cc9OCC8c8ccccc8)cc7)CC6)C5)CCN43)C2=O)C(=O)N1` (some centres unmarked) [Compound B2], at ER [1], the DC50 is over 100 nM. The IC50 with T47D cell line was over 10 nM.

In the case of `O=C1CCC(N2Cc3cc(N4CCN(CC5CC6(CCN(c7ccc([C@H]8c9ccc(O)cc9OC[C@H]8c8ccccc8)cn7)CC6)C5)CC4)ccc3C2=O)C(=O)N1` (stereo partly drawn) [Compound A98, (R)-3-(5-(4-((7-(5-((3R,4S)-7-hydroxy-3-3-phenylchroman-4-yl)pyridin-2-yl)-7-azaspiro[3.5]nonan-2-yl)methyl)piperazin-1-yl)-1-oxoisoindolin-2-yl)piperidine-2,6-dione], the DC50 at ER [2] and at ER [3] was under 1 nM each time. Also, the Dmax was at least 75% on ER [2] (maximal ER degradation) and at least 75% on ER [3] (MCF7, maximal ER degradation). The IC50 was 50 to 500 nM at CRBN/DDB1 (read-out: CRBN HTRF IC50), under 50 nM with T47D cells and under 50 nM in the test with MCF-7 cells.

For the origin of these results see patent US20260000676A1, “CHROMAN DERIVATIVES AS ESTROGEN RECEPTOR DEGRADERS” (THE REGENTS OF THE UNIVERSITY OF MICHIGAN, priority 2022, published 2026).
